Species on record: Rattus norvegicus
Assay: Open TG-GATES - Regimen: Single
Type: toxicity, organism-based, Sprague-Dawley
Design: regimen Single, gender Male, age 6 weeks
Settings: in vivo, po, 100 mg/kg, route gavage, dose level Low; for APTT / Bas / Eos / Fbg / Hb / Ht / Lym / MCH / MCHC / MCV / Mono / Neu / PT / Plat / RBC / Ret / WBC: tissue Blood; for KIDNEY_L / KIDNEY_R / KIDNEY_TOTAL: tissue Kidney; for LIVER: tissue Liver; for A/G / ALP / ALT / AST / BUN / CRE / Ca / Cl / DBIL / GLC / IP / K / LDH / Na / PL / RALB / TBIL / TC / TG / TP / gamma-GTP: tissue Plasma

`O=C(N[C@H](CO)[C@H](O)c1ccc([N+](=O)[O-])cc1)C(Cl)Cl` [CHLORAMPHENICOL] was tested, and the TERMINAL_BW (3 h) was 219.7 g, the APTT (3 h) was 16 s and the Bas (3 h) was 0%. For the same compound, the Eos (3 h) was 0.6%, the Fbg (3 h) was 268.8 mg/dL and the Hb (3 h) was 13.2 g/dL. For the same compound, the Ht (3 h) was 38.6%, the Lym (3 h) was 76.2% and the MCH (3 h) was 21.9 pg. It also gave an MCHC (3 h) of 34.3%, an MCV (3 h) of 63.8 fL and a Mono (3 h) of 3%. For the same compound, the Neu (3 h) was 19.2%, the PT (3 h) was 14.6 s and the Plat (3 h) was 115.2 x10_4/uL. The RBC (3 h) was 608.2 x10_4/ul, the Ret (3 h) was 8.1% and the WBC (3 h) was 83.6 x10_2/uL. The KIDNEY_L (3 h) was 0.9 g, the KIDNEY_R (3 h) was 0.9 g and the KIDNEY_TOTAL (3 h) was 1.9 g. The LIVER (3 h) was 9.6 g, the A/G (3 h) was 0.8 and the ALP (3 h) was 1429.8 IU/L. The ALT (3 h) was 43 IU/L, the AST (3 h) was 74.2 IU/L and the BUN (3 h) was 10.2 mg/dL. For the same compound, the CRE (3 h) was 0.2 mg/dL, the Ca (3 h) was 11.5 mg/dL and the Cl (3 h) was 105 meq/L. It also gave a DBIL (3 h) of 0.014 mg/dL, a GLC (3 h) of 180.8 mg/dL and an IP (3 h) of 8.7 mg/dL. For the same compound, the K (3 h) was 4.2 meq/L, the LDH (3 h) was 58.6 IU/L and the Na (3 h) was 140.4 meq/L. It also gave a PL (3 h) of 136.6 mg/dL, an RALB (3 h) of 2.5 g/dL and a TBIL (3 h) of 0.06 mg/dL. It also gave a TC (3 h) of 78.4 mg/dL, a TG (3 h) of 58.4 mg/dL and a TP (3 h) of 5.4 g/dL. For the same compound, the gamma-GTP (3 h) was 1.2 IU/L, the TERMINAL_BW (6 h) was 219.6 g and the APTT (6 h) was 17.7 s. It also gave a Bas (6 h) of 0%, an Eos (6 h) of 0.8% and a Fbg (6 h) of 283.6 mg/dL. For the same compound, the Hb (6 h) was 13.4 g/dL, the Ht (6 h) was 42.9% and the Lym (6 h) was 78.2%. The MCH (6 h) was 21.3 pg, the MCHC (6 h) was 31.1% and the MCV (6 h) was 68.5 fL. It also gave a Mono (6 h) of 2.2%, a Neu (6 h) of 18.2% and a PT (6 h) of 14.7 s. It also gave a Plat (6 h) of 106.7 x10_4/uL, an RBC (6 h) of 627.6 x10_4/ul and a Ret (6 h) of 7.9%. It also gave a WBC (6 h) of 71.4 x10_2/uL, a KIDNEY_L (6 h) of 1 g and a KIDNEY_R (6 h) of 1 g. It also gave a KIDNEY_TOTAL (6 h) of 1.9 g, an LIVER (6 h) of 9.1 g and an A/G (6 h) of 0.9. The ALP (6 h) was 1362.6 IU/L, the ALT (6 h) was 39.2 IU/L and the AST (6 h) was 75.2 IU/L. The BUN (6 h) was 9 mg/dL, the CRE (6 h) was 0.2 mg/dL and the Ca (6 h) was 11.4 mg/dL. It also gave a Cl (6 h) of 105 meq/L, a DBIL (6 h) of 0.012 mg/dL and a GLC (6 h) of 176.8 mg/dL. For the same compound, the IP (6 h) was 9.6 mg/dL, the K (6 h) was 4.2 meq/L and the LDH (6 h) was 89.4 IU/L. The Na (6 h) was 141 meq/L, the PL (6 h) was 126.2 mg/dL and the RALB (6 h) was 2.5 g/dL. For the same compound, the TBIL (6 h) was 0.066 mg/dL, the TC (6 h) was 72.6 mg/dL and the TG (6 h) was 48.4 mg/dL. The TP (6 h) was 5.4 g/dL, the gamma-GTP (6 h) was 1.2 IU/L and the TERMINAL_BW (9 h) was 221.1 g. For the same compound, the APTT (9 h) was 16.6 s, the Bas (9 h) was 0% and the Eos (9 h) was 1%. It also gave a Fbg (9 h) of 281.8 mg/dL, a Hb (9 h) of 13.3 g/dL and a Ht (9 h) of 42.4%. The Lym (9 h) was 78.6%, the MCH (9 h) was 21.2 pg and the MCHC (9 h) was 31.3%. The MCV (9 h) was 67.8 fL, the Mono (9 h) was 2% and the Neu (9 h) was 17.6%. The PT (9 h) was 14.8 s, the Plat (9 h) was 115.3 x10_4/uL and the RBC (9 h) was 626.6 x10_4/ul. For the same compound, the Ret (9 h) was 7.9%, the WBC (9 h) was 61.1 x10_2/uL and the KIDNEY_L (9 h) was 0.9 g. It also gave a KIDNEY_R (9 h) of 0.9 g, a KIDNEY_TOTAL (9 h) of 1.9 g and an LIVER (9 h) of 9 g. The A/G (9 h) was 0.9, the ALP (9 h) was 1589.8 IU/L and the ALT (9 h) was 38.8 IU/L. It also gave an AST (9 h) of 67.2 IU/L, a BUN (9 h) of 9 mg/dL and a CRE (9 h) of 0.2 mg/dL. It also gave a Ca (9 h) of 11.4 mg/dL, a Cl (9 h) of 105.2 meq/L and a DBIL (9 h) of 0.014 mg/dL. It also gave a GLC (9 h) of 181 mg/dL, an IP (9 h) of 10 mg/dL and a K (9 h) of 4.2 meq/L. It also gave an LDH (9 h) of 61.4 IU/L, a Na (9 h) of 140.8 meq/L and a PL (9 h) of 145.6 mg/dL. For the same compound, the RALB (9 h) was 2.6 g/dL, the TBIL (9 h) was 0.072 mg/dL and the TC (9 h) was 83.2 mg/dL. It also gave a TG (9 h) of 47.4 mg/dL, a TP (9 h) of 5.5 g/dL and a gamma-GTP (9 h) of 1 IU/L. For the same compound, the TERMINAL_BW (24 h) was 224.4 g, the APTT (24 h) was 16.8 s and the Bas (24 h) was 0%. The Eos (24 h) was 1%, the Fbg (24 h) was 264.4 mg/dL and the Hb (24 h) was 13.3 g/dL. The Ht (24 h) was 41.6%, the Lym (24 h) was 79.8% and the MCH (24 h) was 21.4 pg. For the same compound, the MCHC (24 h) was 32%, the MCV (24 h) was 66.7 fL and the Mono (24 h) was 3.6%. For the same compound, the Neu (24 h) was 15%, the PT (24 h) was 14.8 s and the Plat (24 h) was 123 x10_4/uL. It also gave an RBC (24 h) of 623.4 x10_4/ul, a Ret (24 h) of 7% and a WBC (24 h) of 81.1 x10_2/uL. It also gave a KIDNEY_L (24 h) of 1 g, a KIDNEY_R (24 h) of 1 g and a KIDNEY_TOTAL (24 h) of 1.9 g. It also gave an LIVER (24 h) of 9.4 g, an A/G (24 h) of 0.9 and an ALP (24 h) of 1622.8 IU/L. For the same compound, the ALT (24 h) was 48.2 IU/L, the AST (24 h) was 80.4 IU/L and the BUN (24 h) was 15 mg/dL. The CRE (24 h) was 0.2 mg/dL, the Ca (24 h) was 11.4 mg/dL and the Cl (24 h) was 105.8 meq/L. The DBIL (24 h) was 0.012 mg/dL, the GLC (24 h) was 186.6 mg/dL and the IP (24 h) was 8.6 mg/dL. The K (24 h) was 4.1 meq/L, the LDH (24 h) was 61.4 IU/L and the Na (24 h) was 141.6 meq/L. The PL (24 h) was 133 mg/dL, the RALB (24 h) was 2.6 g/dL and the TBIL (24 h) was 0.058 mg/dL. It also gave a TC (24 h) of 76.8 mg/dL, a TG (24 h) of 53.6 mg/dL and a TP (24 h) of 5.6 g/dL. For the same compound, the gamma-GTP (24 h) was 1 IU/L.
